Experiment [1] deals with T1, West Nile Virus (WNV) NS2B-NS3 protease (West Nile virus, UniProt Q9Q6P4).
T1 construct: NS2B1423-1470); purchased R&D 2907-SE-020
Put plainly: WNV protease inhibition assay. Format: biochemical. To be noted: Table 4; letter codes for IC50. From the text: WNV protease inhibition assay

The subject of another experiment is ZIKV replicon. Put plainly: ZIKV replication inhibition assay (NanoLuc replicon in Vero cells). To be noted: read-out: ZIKA Cell_Nanoluc; Vero cells with stable ZIKV replicon, 72 h, Nano-Glo readout. (In antiviral work, replicon cells carry a viral genome segment that copies itself.)
For experiment [2], the target named is Japanese encephalitis virus (JEV)-NS2B-NS3 protease (Japanese encephalitis virus, UniProt P32886, DEL1469-1493). Put plainly: JEV protease inhibition assay. Format: biochemical. To be noted: 600 nM enzyme, 10 µM Pyr-RTKR-AMC substrate, 25 °C; read-out: JEV - NS3 protease.

In the case of “((3-Cyclopropyl-5-(2-(phenylsulfonyl)-acetamido)phenyl)carbamoyl)(3-((1R,4R)-4-((dimethylamino)methyl)cyclohexyl)-1,2,3-oxadiazol-3-ium-5-yl)amide [Example 150]”, the IC50 in experiment [1] is under 0.1 µM; in experiment [2] it was 1 to 20 µM. Besides, in the experiment on ZIKV replicon, the EC50 was in the range of 1 to 20 µM.
As to `CN(C)C[C@H]1CC[C@H]([n+]2cc([N-]C(=O)Nc3cc(NC(=O)Cc4ccc5c(c4)OCO5)cc(C(F)(F)F)c3)on2)CC1` [Example 154, ((3-(2-(Benzo[d][1,3]dioxol-5-yl)acetamido)-5-(trifluoromethyl)phenyl)carbamoyl)(3-((1R,4R)-4-((dimethylamino)methyl)cyclohexyl)-1,2,3-oxadiazol-3-ium-5-yl)amide], the IC50 in experiment [1] is 1 to 20 µM; in experiment [2] it was over 20 µM. Besides, the EC50 with ZIKV replicon is over 20 µM.
